Data reported in PubChem BioAssay (NCI).
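Method: 48-hour compound exposure of cells in 96-well plates, five concentrations, linear interpolation of endpoints. TGI: total growth inhibition.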

What was measured:
Assay in all cases: NCI tumour cell line growth inhibition, 48 h
786-0 renal = tested on: 786-0 renal
A498 renal = tested on: A498 renal
A549 NSCLC = tested on: A549 NSCLC
ACHN renal = tested on: ACHN renal
BT-549 breast = tested on: BT-549 breast
CAKI-1 renal = tested on: CAKI-1 renal
CCRF-CEM leukemia = tested on: CCRF-CEM leukemia
COLO 205 colon = tested on: COLO 205 colon
DU-145 prostate = tested on: DU-145 prostate
EKVX NSCLC = tested on: EKVX NSCLC
HCC-2998 colon = tested on: HCC-2998 colon
HCT-116 colon = tested on: HCT-116 colon
HCT-15 colon = tested on: HCT-15 colon
HL-60(TB) leukemia = tested on: HL-60(TB) leukemia
HOP-62 NSCLC = tested on: HOP-62 NSCLC
HOP-92 NSCLC = tested on: HOP-92 NSCLC
HS 578T breast = tested on: HS 578T breast
HT29 colon = tested on: HT29 colon
IGROV1 ovarian = tested on: IGROV1 ovarian
K-562 leukemia = tested on: K-562 leukemia
KM12 colon = tested on: KM12 colon
LOX IMVI melanoma = tested on: LOX IMVI melanoma
M14 melanoma = tested on: M14 melanoma
MALME-3M melanoma = tested on: MALME-3M melanoma
MCF7 breast = tested on: MCF7 breast
MDA-MB-231 breast = tested on: MDA-MB-231 breast
MDA-MB-435 = tested on: MDA-MB-435
MDA-N = tested on: MDA-N
MOLT-4 leukemia = tested on: MOLT-4 leukemia
NCI-H226 lung = tested on: NCI-H226 lung
NCI-H23 lung = tested on: NCI-H23 lung
NCI-H460 lung = tested on: NCI-H460 lung
NCI-H522 lung = tested on: NCI-H522 lung
NCI/ADR-RES ovarian = tested on: NCI/ADR-RES ovarian
OVCAR-3 ovarian = tested on: OVCAR-3 ovarian
OVCAR-4 ovarian = tested on: OVCAR-4 ovarian
OVCAR-5 ovarian = tested on: OVCAR-5 ovarian
OVCAR-8 ovarian = tested on: OVCAR-8 ovarian
PC-3 prostate = tested on: PC-3 prostate
RXF 393 renal = tested on: RXF 393 renal
SF-268 CNS = tested on: SF-268 CNS
SF-295 CNS = tested on: SF-295 CNS
SK-MEL-28 melanoma = tested on: SK-MEL-28 melanoma
SK-MEL-5 melanoma = tested on: SK-MEL-5 melanoma
SK-OV-3 ovarian = tested on: SK-OV-3 ovarian
SN12C renal = tested on: SN12C renal
SNB-19 CNS = tested on: SNB-19 CNS
SNB-75 CNS = tested on: SNB-75 CNS
SR leukemia = tested on: SR leukemia
SW-620 colon = tested on: SW-620 colon
T-47D breast = tested on: T-47D breast
TK-10 renal = tested on: TK-10 renal
U251 CNS = tested on: U251 CNS
UACC-257 melanoma = tested on: UACC-257 melanoma
UACC-62 melanoma = tested on: UACC-62 melanoma
UO-31 renal = tested on: UO-31 renal
RPMI-8226 leukemia = tested on: RPMI-8226 leukemia
SF-539 CNS = tested on: SF-539 CNS
SK-MEL-2 melanoma = tested on: SK-MEL-2 melanoma

CN(CCNC(=O)c1[nH]nc2c1Cc1ccccc1-2)CCNC(=O)c1[nH]nc2c1Cc1ccccc1-2
TGI (786-0 renal): 30.6 µM
TGI (A498 renal): 36.8 µM
TGI (A549 NSCLC): 39.8 µM
TGI (ACHN renal): 32.5 µM
TGI (BT-549 breast): 31 µM
TGI (CAKI-1 renal): 31.3 µM
TGI (CCRF-CEM leukemia): 42.9 µM
TGI (COLO 205 colon): 31.9 µM
TGI (DU-145 prostate): 32 µM
TGI (EKVX NSCLC): 38.4 µM
TGI (HCC-2998 colon): 29.4 µM
TGI (HCT-116 colon): 32.8 µM
TGI (HCT-15 colon): 33.2 µM
TGI (HL-60(TB) leukemia): 40.7 µM
TGI (HOP-62 NSCLC): 29.4 µM
TGI (HOP-92 NSCLC): 34.6 µM
TGI (HS 578T breast): 61.9 µM
TGI (HT29 colon): 32.7 µM
TGI (IGROV1 ovarian): 31.8 µM
TGI (K-562 leukemia): 38.1 µM
TGI (KM12 colon): 33.6 µM
TGI (LOX IMVI melanoma): 38.5 µM
TGI (M14 melanoma): 34.4 µM
TGI (MALME-3M melanoma): 34.5 µM
TGI (MCF7 breast): 44.9 µM
TGI (MDA-MB-231 breast): 39.3 µM
TGI (MDA-MB-435): 35.3 µM
TGI (MDA-N): 31.2 µM
TGI (MOLT-4 leukemia): 45.2 µM
TGI (NCI-H226 lung): 35.8 µM
TGI (NCI-H23 lung): 33.6 µM
TGI (NCI-H460 lung): 33.5 µM
TGI (NCI-H522 lung): 33.4 µM
TGI (NCI/ADR-RES ovarian): > 100 µM
TGI (OVCAR-3 ovarian): 28.9 µM
TGI (OVCAR-4 ovarian): 32.4 µM
TGI (OVCAR-5 ovarian): 33.5 µM
TGI (OVCAR-8 ovarian): 41.7 µM
TGI (PC-3 prostate): 35.7 µM
TGI (RXF 393 renal): 32.3 µM
TGI (SF-268 CNS): 39.6 µM
TGI (SF-295 CNS): 31 µM
TGI (SK-MEL-28 melanoma): 35.2 µM
TGI (SK-MEL-5 melanoma): 30.8 µM
TGI (SK-OV-3 ovarian): 31.1 µM
TGI (SN12C renal): 31.8 µM
TGI (SNB-19 CNS): 31.4 µM
TGI (SNB-75 CNS): 26.1 µM
TGI (SR leukemia): 42.9 µM
TGI (SW-620 colon): 49.4 µM
TGI (T-47D breast): 44.3 µM
TGI (TK-10 renal): 33.7 µM
TGI (U251 CNS): 41.3 µM
TGI (UACC-257 melanoma): 34.3 µM
TGI (UACC-62 melanoma): 37.5 µM
TGI (UO-31 renal): 34.7 µM

C[C@]12CCC3c4ccc(O)cc4CC[C@H]3C1CC(=O)N(CCN1CCCC1)C2=O (some centres undefined)
TGI (786-0 renal): > 10 µM
TGI (A498 renal): > 10 µM
TGI (A549 NSCLC): > 10 µM
TGI (ACHN renal): > 10 µM
TGI (BT-549 breast): > 10 µM
TGI (CAKI-1 renal): > 10 µM
TGI (CCRF-CEM leukemia): > 10 µM
TGI (COLO 205 colon): > 10 µM
TGI (DU-145 prostate): > 10 µM
TGI (EKVX NSCLC): > 10 µM
TGI (HCC-2998 colon): > 10 µM
TGI (HCT-116 colon): > 10 µM
TGI (HCT-15 colon): > 10 µM
TGI (HL-60(TB) leukemia): > 10 µM
TGI (HOP-62 NSCLC): > 10 µM
TGI (HS 578T breast): > 10 µM
TGI (HT29 colon): > 10 µM
TGI (IGROV1 ovarian): > 10 µM
TGI (K-562 leukemia): > 10 µM
TGI (KM12 colon): > 10 µM
TGI (LOX IMVI melanoma): > 10 µM
TGI (M14 melanoma): > 10 µM
TGI (MALME-3M melanoma): > 10 µM
TGI (MCF7 breast): > 10 µM
TGI (MDA-MB-231 breast): > 10 µM
TGI (MDA-MB-435): > 10 µM
TGI (MDA-N): > 10 µM
TGI (MOLT-4 leukemia): > 10 µM
TGI (NCI-H226 lung): > 10 µM
TGI (NCI-H23 lung): > 10 µM
TGI (NCI-H460 lung): > 10 µM
TGI (NCI/ADR-RES ovarian): > 10 µM
TGI (OVCAR-3 ovarian): > 10 µM
TGI (OVCAR-4 ovarian): > 10 µM
TGI (OVCAR-5 ovarian): > 10 µM
TGI (OVCAR-8 ovarian): > 10 µM
TGI (PC-3 prostate): > 10 µM
TGI (RPMI-8226 leukemia): > 10 µM
TGI (RXF 393 renal): > 10 µM
TGI (SF-268 CNS): > 10 µM
TGI (SF-295 CNS): > 10 µM
TGI (SF-539 CNS): > 10 µM
TGI (SK-MEL-2 melanoma): > 10 µM
TGI (SK-MEL-28 melanoma): > 10 µM
TGI (SK-MEL-5 melanoma): > 10 µM
TGI (SK-OV-3 ovarian): > 10 µM
TGI (SN12C renal): > 10 µM
TGI (SNB-19 CNS): > 10 µM
TGI (SNB-75 CNS): > 10 µM
TGI (SR leukemia): > 10 µM
TGI (SW-620 colon): > 10 µM
TGI (T-47D breast): > 10 µM
TGI (TK-10 renal): > 10 µM
TGI (U251 CNS): > 10 µM
TGI (UACC-257 melanoma): > 10 µM
TGI (UACC-62 melanoma): > 10 µM
TGI (UO-31 renal): > 10 µM

CCOC1CN(C)C(=Nc2cccc3ccccc23)S1 (centres undefined)
TGI (786-0 renal): > 10 µM
TGI (A498 renal): > 10 µM
TGI (A549 NSCLC): > 10 µM
TGI (ACHN renal): > 10 µM
TGI (BT-549 breast): > 10 µM
TGI (CAKI-1 renal): > 10 µM
TGI (CCRF-CEM leukemia): > 10 µM
TGI (COLO 205 colon): > 10 µM
TGI (DU-145 prostate): > 10 µM
TGI (EKVX NSCLC): > 10 µM
TGI (HCC-2998 colon): > 10 µM
TGI (HCT-116 colon): > 10 µM
TGI (HCT-15 colon): > 10 µM
TGI (HOP-62 NSCLC): > 10 µM
TGI (HOP-92 NSCLC): > 10 µM
TGI (HS 578T breast): > 10 µM
TGI (HT29 colon): > 10 µM
TGI (IGROV1 ovarian): > 10 µM
TGI (K-562 leukemia): > 10 µM
TGI (KM12 colon): > 10 µM
TGI (LOX IMVI melanoma): > 10 µM
TGI (M14 melanoma): > 10 µM
TGI (MALME-3M melanoma): > 10 µM
TGI (MCF7 breast): > 10 µM
TGI (MDA-MB-231 breast): > 10 µM
TGI (MDA-MB-435): > 10 µM
TGI (MDA-N): > 10 µM
TGI (MOLT-4 leukemia): > 10 µM
TGI (NCI-H226 lung): > 10 µM
TGI (NCI-H23 lung): > 10 µM
TGI (NCI-H460 lung): > 10 µM
TGI (NCI-H522 lung): > 10 µM
TGI (NCI/ADR-RES ovarian): > 10 µM
TGI (OVCAR-3 ovarian): > 10 µM
TGI (OVCAR-4 ovarian): > 10 µM
TGI (OVCAR-5 ovarian): > 10 µM
TGI (OVCAR-8 ovarian): > 10 µM
TGI (PC-3 prostate): > 10 µM
TGI (RPMI-8226 leukemia): > 10 µM
TGI (SF-268 CNS): > 10 µM
TGI (SF-295 CNS): > 10 µM
TGI (SF-539 CNS): > 10 µM
TGI (SK-MEL-28 melanoma): > 10 µM
TGI (SK-MEL-5 melanoma): > 10 µM
TGI (SK-OV-3 ovarian): > 10 µM
TGI (SN12C renal): > 10 µM
TGI (SNB-19 CNS): > 10 µM
TGI (SNB-75 CNS): > 10 µM
TGI (SR leukemia): > 10 µM
TGI (SW-620 colon): > 10 µM
TGI (T-47D breast): > 10 µM
TGI (TK-10 renal): > 10 µM
TGI (U251 CNS): > 10 µM
TGI (UACC-257 melanoma): > 10 µM
TGI (UACC-62 melanoma): > 10 µM
TGI (UO-31 renal): > 10 µM
